# Experimental data as given in ChEMBL document CHEMBL1201862, “PubChem BioAssay data set” (2004).
# Calls of active or inactive are those of the source.
# Legend:
# [1] = biological target: Kallikrein-7 (Homo sapiens, UniProt P49862); assay: Fluorescence Intensity-based biochemical primary high throughput dose response assay to identify activators of kallikrein-7 (K7) zymogen.
# [2] = cells; assay type: functional, cell-based
# [3] = cells; assay type: functional, cell-based; remark: listed apart in the source
# [4] = cells; assay type: functional, cell-based; remark: listed apart in the source
# [5] = biological target: Nuclear receptor subfamily 0 group B member 1 (Homo sapiens, UniProt P51843); assay type: functional, cell-based;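 further: HEK293T cells transfected with SF-1 and DAX-1 plus StAR promoter luciferase reporter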
# [6] = biological target: Beta-lactamase (Salmonella choleraesuis (strain SC-B67), UniProt Q5J463); assay: Epi-absorbance-based counterscreen for selective VIM-2 inhibitors: dose response biochemical high throughput screening assay to identify inhibitors of TEM-1 serine-beta-lactamase.
# [7] = biological target: T1, Beta-lactamase (Pseudomonas aeruginosa, UniProt Q79MP6); assay: IMP-1 metallo-beta-lactamase inhibitors, dose response, selectivity assay for VIM-2 inhibitor project, biochemical, epi-absorbance (AID 1920)
# [8] = biological target: T1, Beta-lactamase; assay: […] counterscreen for selective VIM-2 inhibitors: dose response biochemical high throughput screening assay to identify inhibitors of IMP-1 metallo-beta-lactamase.
# [9] = biological target: Luciferin 4-monooxygenase (Photinus pyralis, UniProt P08659); assay: firefly luciferase enzyme inhibitors, dose response, biochemical, luminescence (AID 1891)
# [10] = Luminescence Cell-Based Dose Confirmation HTS to Identify Inhibitors of Platelet Dense Granule Release. [Related pubchem assays: 1663 (Primary HTS), 1678 (Summary of Project)]; assay type: functional
# [11] = biological target: Galanin receptor type 3 (Homo sapiens, UniProt O60755); assay: Fluorescence-based cell-based primary high throughput dose response assay to identify antagonists of the Galanin Receptor 3 (GalR3).; assay type: functional
# [12] = cells; assay type: functional, cell-based; settings: HEK-CNG
# [13] = cells
# [14] = biological target: T2, Beta-2 adrenergic receptor (Homo sapiens, UniProt P07550); assay: beta2AR agonists driving receptor internalization, dose response, cell-based, FAP fluorogen, flow cytometry, cherry pick 1 (AID 588763); assay type: functional
# [15] = biological target: T2, Beta-2 adrenergic receptor; assay: Dose response for HTS for Beta-2AR agonists via FAP method from Powderset3.; assay type: functional
# [16] = tested on: H9c2; assay: cells; assay type: functional, cell-based; settings: Rattus norvegicus, H9c2, Myocardium;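 further: confirmatory concentration-response retest of ultra-high-throughput screening hits for modulation of myocardial damage; cell death induced by hydrogen peroxide oxidative stress; compound pretreatment for 60 min then peroxide exposure for 2 h; potency is for protecting the cells against peroxide damage rather than for killing them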
# [17] = Counterscreen for […] of the human trace amine associated receptor 1 (TAAR1): Fluorescence-based cell-based high throughput dose response assay to identify nonselective Ga16 agonists.; assay type: functional
# [18] = biological target: T3, Trace amine-associated receptor 1 (Homo sapiens, UniProt Q96RJ0); assay: Fluorescence-based cell-based high throughput dose response assay to identify antagonists of the human trace amine associated receptor 1 (TAAR1).; assay type: functional
# T3 sequence (Q96RJ0 whole entry): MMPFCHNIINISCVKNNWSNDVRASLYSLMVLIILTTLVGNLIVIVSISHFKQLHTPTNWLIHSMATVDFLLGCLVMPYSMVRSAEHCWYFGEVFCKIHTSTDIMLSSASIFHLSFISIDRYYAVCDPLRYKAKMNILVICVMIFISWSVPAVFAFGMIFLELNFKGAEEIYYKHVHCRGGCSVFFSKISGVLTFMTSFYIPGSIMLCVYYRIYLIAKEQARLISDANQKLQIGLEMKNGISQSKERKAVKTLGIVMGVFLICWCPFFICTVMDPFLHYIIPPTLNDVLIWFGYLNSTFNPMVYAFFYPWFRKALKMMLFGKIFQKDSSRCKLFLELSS
# [19] = Counterscreen for antagonists of the human trace amine associated receptor 1 (hTAAR1): Fluorescence-based cell-based high throughput dose response assay to identify nonselective Ga16 antagonists.; assay type: functional
# [20] = biological target: T3, Trace amine-associated receptor 1; assay: Counterscreen for antagonists of the human trace amine associated receptor 1 (hTAAR1): Fluorescence-based cell-based high throughput dose response assay to identify TAAR1 Agonists.; assay type: functional
# [21] = biological target: Beta-galactosidase (Escherichia coli, UniProt Q8VNN2); assay: Dose response counterscreen for EBI2 assay utilizing the enzyme, b-galactosidase.; assay type: functional
# [22] = biological target: T4, Oxysterols receptor LXR-beta (Homo sapiens, UniProt P55055); assay type: functional, cell-based;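 further: agonist activity at LXR measured by a cell-based luminescence readout across a dose range, run as a counterscreen for daf-12 agonists; HEK293 cells with Gal4-LXR fusion and GAL4-driven luciferase reporter; potency for activation of Gal4-LXR reporter so compounds are agonists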
# T4 sequence (P55055 whole entry): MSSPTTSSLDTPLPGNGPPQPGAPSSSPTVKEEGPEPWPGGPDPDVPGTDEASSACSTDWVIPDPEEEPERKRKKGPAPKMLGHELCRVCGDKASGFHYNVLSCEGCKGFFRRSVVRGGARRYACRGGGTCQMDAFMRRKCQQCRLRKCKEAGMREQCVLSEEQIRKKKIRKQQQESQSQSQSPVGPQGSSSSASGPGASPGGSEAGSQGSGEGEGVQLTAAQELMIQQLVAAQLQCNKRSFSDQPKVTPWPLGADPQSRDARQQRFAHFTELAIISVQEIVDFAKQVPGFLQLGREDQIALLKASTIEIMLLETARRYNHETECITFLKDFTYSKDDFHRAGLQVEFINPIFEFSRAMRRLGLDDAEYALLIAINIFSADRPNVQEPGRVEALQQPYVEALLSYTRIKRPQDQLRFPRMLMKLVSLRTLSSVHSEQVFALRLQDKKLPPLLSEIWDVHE
# [23] = biological target: 1-phosphatidylinositol 4,5-bisphosphate phosphodiesterase gamma-1 (Homo sapiens, UniProt P19174); assay: Counterscreen for inhibitors of phospholipase C isozymes (PLC-B3): Fluorescence-based biochemical high throughput dose response assay to identify inhibitors of phospholipase C isozymes (PLC-gamma1).
# [24] = biological target: 1-phosphatidylinositol 4,5-bisphosphate phosphodiesterase beta-3 (Homo sapiens, UniProt Q01970); assay: Fluorescence-based biochemical high throughput dose response assay to identify inhibitors of phospholipase C isozymes (PLC-B3).
# 1-phosphatidylinositol 4,5-bisphosphate phosphodiesterase beta-3, sequence (Q01970 whole entry): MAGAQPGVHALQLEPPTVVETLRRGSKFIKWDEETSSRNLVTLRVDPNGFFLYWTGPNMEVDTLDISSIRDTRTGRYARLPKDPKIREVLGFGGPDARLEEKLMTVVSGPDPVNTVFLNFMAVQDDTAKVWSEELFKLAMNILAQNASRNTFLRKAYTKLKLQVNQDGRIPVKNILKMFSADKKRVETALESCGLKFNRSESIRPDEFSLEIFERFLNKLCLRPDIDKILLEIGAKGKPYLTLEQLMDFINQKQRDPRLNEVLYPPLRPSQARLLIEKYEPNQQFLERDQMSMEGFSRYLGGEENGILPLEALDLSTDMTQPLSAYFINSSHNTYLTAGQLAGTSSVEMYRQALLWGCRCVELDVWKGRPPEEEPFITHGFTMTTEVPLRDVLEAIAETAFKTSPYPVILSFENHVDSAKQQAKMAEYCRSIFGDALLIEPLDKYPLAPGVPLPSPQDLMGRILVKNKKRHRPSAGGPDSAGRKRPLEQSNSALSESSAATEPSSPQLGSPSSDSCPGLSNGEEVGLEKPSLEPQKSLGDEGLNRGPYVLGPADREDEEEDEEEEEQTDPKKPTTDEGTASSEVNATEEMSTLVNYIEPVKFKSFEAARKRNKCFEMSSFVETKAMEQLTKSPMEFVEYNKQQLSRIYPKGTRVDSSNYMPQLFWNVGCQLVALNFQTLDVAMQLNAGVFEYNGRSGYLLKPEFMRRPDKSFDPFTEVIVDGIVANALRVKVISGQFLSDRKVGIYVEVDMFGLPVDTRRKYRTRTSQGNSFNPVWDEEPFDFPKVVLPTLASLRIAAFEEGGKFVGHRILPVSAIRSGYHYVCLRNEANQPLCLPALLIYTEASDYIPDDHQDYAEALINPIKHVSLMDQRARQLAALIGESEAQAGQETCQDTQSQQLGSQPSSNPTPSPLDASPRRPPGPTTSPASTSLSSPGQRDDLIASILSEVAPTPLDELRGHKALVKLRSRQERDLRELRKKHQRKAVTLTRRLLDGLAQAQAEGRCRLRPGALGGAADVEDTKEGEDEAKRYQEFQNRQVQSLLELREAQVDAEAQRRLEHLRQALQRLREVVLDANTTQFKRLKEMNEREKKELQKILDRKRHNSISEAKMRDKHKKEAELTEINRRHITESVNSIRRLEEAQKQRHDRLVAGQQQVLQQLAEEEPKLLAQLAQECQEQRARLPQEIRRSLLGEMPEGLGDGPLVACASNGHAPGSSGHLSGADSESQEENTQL
# T1 sequence (Q79MP6 whole entry): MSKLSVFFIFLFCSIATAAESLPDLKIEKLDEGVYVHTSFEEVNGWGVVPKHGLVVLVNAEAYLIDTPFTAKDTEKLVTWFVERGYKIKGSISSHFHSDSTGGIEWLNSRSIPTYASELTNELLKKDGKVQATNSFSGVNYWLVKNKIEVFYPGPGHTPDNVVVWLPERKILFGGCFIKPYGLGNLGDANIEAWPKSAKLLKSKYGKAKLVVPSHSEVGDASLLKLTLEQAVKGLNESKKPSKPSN
# T2 sequence (P07550 whole entry): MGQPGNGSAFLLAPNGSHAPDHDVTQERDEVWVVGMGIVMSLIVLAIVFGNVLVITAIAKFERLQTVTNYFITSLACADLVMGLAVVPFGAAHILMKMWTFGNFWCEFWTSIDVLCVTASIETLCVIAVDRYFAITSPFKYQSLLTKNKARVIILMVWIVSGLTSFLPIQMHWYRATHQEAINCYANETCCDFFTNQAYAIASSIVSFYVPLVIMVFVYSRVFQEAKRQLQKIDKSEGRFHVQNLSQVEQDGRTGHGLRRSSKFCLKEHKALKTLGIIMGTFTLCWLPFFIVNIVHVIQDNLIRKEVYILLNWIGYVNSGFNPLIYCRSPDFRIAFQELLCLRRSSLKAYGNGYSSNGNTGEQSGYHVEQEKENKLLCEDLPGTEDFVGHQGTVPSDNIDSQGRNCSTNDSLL
# Galanin receptor type 3, sequence (O60755 whole entry): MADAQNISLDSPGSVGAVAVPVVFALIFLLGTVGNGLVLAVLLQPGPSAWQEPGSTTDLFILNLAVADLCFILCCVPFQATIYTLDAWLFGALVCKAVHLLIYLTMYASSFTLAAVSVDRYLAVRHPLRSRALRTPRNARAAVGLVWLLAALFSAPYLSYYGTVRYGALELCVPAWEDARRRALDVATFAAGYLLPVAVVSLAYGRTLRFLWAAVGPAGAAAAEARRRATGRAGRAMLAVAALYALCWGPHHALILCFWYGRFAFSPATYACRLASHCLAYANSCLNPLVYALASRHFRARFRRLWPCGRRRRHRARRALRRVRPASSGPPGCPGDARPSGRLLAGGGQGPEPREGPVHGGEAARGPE
# Kallikrein-7, sequence (P49862 whole entry): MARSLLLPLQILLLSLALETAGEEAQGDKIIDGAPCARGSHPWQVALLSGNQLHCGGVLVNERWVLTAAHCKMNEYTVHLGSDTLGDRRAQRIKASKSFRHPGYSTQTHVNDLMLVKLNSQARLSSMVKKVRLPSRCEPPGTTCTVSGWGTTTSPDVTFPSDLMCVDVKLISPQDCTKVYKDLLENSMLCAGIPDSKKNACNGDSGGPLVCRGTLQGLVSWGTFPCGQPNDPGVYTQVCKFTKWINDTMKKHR
# 1-phosphatidylinositol 4,5-bisphosphate phosphodiesterase gamma-1, sequence (P19174 whole entry): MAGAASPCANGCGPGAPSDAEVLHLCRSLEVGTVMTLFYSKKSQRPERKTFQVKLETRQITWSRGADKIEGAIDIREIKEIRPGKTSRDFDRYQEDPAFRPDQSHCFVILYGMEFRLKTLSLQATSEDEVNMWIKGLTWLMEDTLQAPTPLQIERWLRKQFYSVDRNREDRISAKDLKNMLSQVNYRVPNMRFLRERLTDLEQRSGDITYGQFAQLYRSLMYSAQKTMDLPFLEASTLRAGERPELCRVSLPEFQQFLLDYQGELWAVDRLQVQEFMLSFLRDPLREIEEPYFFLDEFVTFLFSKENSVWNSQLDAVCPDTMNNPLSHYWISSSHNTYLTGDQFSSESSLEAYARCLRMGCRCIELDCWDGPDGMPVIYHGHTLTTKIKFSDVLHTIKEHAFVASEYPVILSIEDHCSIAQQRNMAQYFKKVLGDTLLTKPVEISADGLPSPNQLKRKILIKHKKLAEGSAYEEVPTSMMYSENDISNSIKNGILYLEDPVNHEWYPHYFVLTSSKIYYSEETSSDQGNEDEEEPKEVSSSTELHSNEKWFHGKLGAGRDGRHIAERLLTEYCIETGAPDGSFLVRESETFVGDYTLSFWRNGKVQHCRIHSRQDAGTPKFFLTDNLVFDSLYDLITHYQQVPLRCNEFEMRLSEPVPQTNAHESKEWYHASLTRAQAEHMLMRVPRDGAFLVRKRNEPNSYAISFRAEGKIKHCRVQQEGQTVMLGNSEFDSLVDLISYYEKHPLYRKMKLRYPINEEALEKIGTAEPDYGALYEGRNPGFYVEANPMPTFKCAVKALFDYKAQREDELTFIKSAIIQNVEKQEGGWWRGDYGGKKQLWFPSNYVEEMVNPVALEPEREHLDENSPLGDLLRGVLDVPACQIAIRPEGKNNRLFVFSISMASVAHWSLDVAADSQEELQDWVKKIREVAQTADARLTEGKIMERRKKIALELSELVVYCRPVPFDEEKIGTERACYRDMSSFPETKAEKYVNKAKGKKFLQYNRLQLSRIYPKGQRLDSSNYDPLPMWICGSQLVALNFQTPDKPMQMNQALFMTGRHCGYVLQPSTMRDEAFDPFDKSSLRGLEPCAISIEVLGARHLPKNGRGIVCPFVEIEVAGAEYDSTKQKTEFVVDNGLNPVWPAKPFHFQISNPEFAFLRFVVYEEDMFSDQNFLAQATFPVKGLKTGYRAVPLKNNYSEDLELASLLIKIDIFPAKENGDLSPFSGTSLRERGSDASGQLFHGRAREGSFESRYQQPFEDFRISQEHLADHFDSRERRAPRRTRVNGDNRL
# Nuclear receptor subfamily 0 group B member 1, sequence (P51843 whole entry): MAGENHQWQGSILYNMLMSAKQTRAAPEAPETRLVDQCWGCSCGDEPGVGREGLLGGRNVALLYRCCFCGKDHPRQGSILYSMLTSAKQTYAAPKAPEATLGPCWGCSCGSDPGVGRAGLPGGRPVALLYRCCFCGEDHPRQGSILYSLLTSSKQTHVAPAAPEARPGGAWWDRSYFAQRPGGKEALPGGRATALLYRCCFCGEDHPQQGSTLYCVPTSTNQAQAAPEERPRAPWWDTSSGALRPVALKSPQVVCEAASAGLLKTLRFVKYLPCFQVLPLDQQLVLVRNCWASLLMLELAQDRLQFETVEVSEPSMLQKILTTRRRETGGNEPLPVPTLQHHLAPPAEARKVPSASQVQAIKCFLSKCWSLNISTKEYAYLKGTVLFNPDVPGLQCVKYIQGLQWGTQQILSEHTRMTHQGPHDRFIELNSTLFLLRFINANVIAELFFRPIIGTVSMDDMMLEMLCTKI
# Luciferin 4-monooxygenase, sequence (P08659 whole entry): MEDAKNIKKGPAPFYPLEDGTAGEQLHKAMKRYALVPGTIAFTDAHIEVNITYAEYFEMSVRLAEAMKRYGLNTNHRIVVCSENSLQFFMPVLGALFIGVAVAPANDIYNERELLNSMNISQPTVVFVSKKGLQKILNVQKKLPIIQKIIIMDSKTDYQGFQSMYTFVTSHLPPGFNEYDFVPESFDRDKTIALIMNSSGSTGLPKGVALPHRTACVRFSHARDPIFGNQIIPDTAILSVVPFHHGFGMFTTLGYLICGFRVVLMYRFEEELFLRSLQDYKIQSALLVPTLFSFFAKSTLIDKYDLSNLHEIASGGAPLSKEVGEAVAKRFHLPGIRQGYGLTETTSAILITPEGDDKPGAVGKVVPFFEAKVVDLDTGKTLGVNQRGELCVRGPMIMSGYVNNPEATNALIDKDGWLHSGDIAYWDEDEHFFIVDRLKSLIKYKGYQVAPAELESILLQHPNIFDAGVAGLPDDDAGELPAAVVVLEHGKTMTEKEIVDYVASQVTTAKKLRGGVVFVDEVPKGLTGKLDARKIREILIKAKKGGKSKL
structure (smiles),measurement,setting,value
COc1ccc(-c2ccc3nnc(SCC(=O)NCC4CCCO4)n3n2)cc1 (centres undefined),EC50,[1],> 69.5 µM (inactive)
Cc1cc(C)c2nc(N3CCN(C(=O)c4ccco4)CC3)sc2c1,EC50,[2],> 350 µM (not active)
same,EC50,[3],55.3 µM (active)
same,IC50,[4],> 67.5 µM (inactive)
same,IC50,[5],> 67.5 µM (inactive)
O=C(CSc1nnc(NC(=O)c2ccccc2[N+](=O)[O-])s1)NCc1ccco1,IC50,[6],> 59.6 µM (inactive)
same,IC50,[7],> 59.6 µM (inactive)
same,IC50,[8],> 59.6 µM (inactive)
CC1CC(=O)NN=C1c1ccc(N(C)C)c([N+](=O)[O-])c1 (centres undefined),EC50,[9],> 112 µM (not active)
same,EC50,[10],0.149 µM (active)
same,IC50,[11],1.72 µM (active)
same,EC50,[12],> 29.9 µM (inactive)
C=CCc1c(O)c(CC)cc2c(C)cc(=O)oc12,AC50,[13],0.903 µM (active)
C=CCn1c(CCNC(=O)c2cccs2)nnc1SCC(=O)c1ccc(Cl)cc1,EC50,[14],0.167 µM (active)
same,EC50,[15],0.00153 µM (active)
CN1C(=O)CSc2ccc(NC(=O)Nc3ccccn3)cc21,IC50,[16],49 µM (inactive)
same,EC50,[17],> 29.9 µM (inactive)
same,IC50,[18],5.8 µM (active)
same,IC50,[19],> 29.9 µM (inactive)
same,EC50,[20],> 29.9 µM (inactive)
COc1ccc(NC(=O)c2ccc(OC(=S)N(C)c3ccc(OC)cc3)cc2)cc1,IC50,[21],> 80 µM (inactive)
O=C(/C=C/c1ccccc1)N1CCC(c2ccccc2)C1 (centres undefined),EC50,[22],> 67.5 µM (inactive)
Cc1c(N2C(=O)c3cccc4cccc(c34)C2=O)c(=O)n(-c2ccccc2)n1C,IC50,[23],> 122 µM (inactive)
same,IC50,[24],> 122 µM (inactive)
